These results are taken from patent publication US9611248B2, “Chemical compounds” (Syngenta Participations AG, priority 2013, dated 2017).

This experiment relates to a variety of test species. The experiment in a line: Post-emergence herbicidal activity. The experiment is classed as in vivo. As to conditions: rate 1000 g/ha, evaluated after 13 days. Details: key to ABUTH (Abutilon theophrasti) damage score / AMARE (Amaranthus retroflexus) damage score / ALOMY (Alopecurus myosuroides) damage score / ECHCG (Echinochloa crus-galli) damage score / ZEAMX (Zea mays) damage score / SOLNI (Solanum nigrum) damage score: 0 = no damage to plant, 5 = total damage to plant. In a few lines:
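Plants grown for 8 days in pots were sprayed post-emergence with compound in acetone/water (50:50) containing 0.5% Tween 20. They were kept in a glasshouse at 24/16 °C day/night, 14 h light, 65% humidity, watered twice daily. Damage was scored after 13 days (0 none to 5 total).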
As for `CCc1cc(N2C(=O)C(C)=C(OC)C2O)ncc1-c1ccoc1` (stereo not drawn) [AD102], the “ABUTH (Abutilon theophrasti) damage score” value (shortened to “ABUTH”) came to 4, the “ALOMY (Alopecurus myosuroides) damage score” value (from here on “ALOMY”) is 3, the “AMARE (Amaranthus retroflexus) damage score” value (shortened to “AMARE”) was 5 and the “ECHCG (Echinochloa crus-galli) damage score” value (“ECHCG” below) is reported as 3. Also, the “SETFA (Setaria faberi) damage score” value was 4 and the “ZEAMX (Zea mays) damage score” value is given as 1.

In the case of `CCc1cc(N2C(=O)C(C)=C(OC)C2O)ncc1-c1ccc(C)c([N+](=O)[O-])c1` (stereo not drawn) [AD103], the “ABUTH” value was 4, the “ALOMY” value is listed as 3, the “AMARE” value was 5 and the “ECHCG” value was determined as 4. For the same compound, the “SETFA (Setaria faberi) damage score” value is listed as 4 and the “ZEAMX (Zea mays) damage score” value was 1.

Turning to `CCc1cc(N2C(=O)C(C)=C(OC)C2O)ncc1-c1ccccc1[N+](=O)[O-]` (stereo not drawn) [AD104], the “ABUTH” value was determined as 5, the “ALOMY” value is 2, the “AMARE” value is 5 and the “ECHCG” value was 2. Also, the “SETFA (Setaria faberi) damage score” value was found to be 4 and the “ZEAMX (Zea mays) damage score” value stood at 0.

In the case of `CCc1cc(N2C(=O)C(C)=C(OC)C2O)ncc1-c1ccccc1F` (stereo not drawn) [AD105], the “ABUTH” value is 5, the “ALOMY” value turned out to be 2, the “AMARE” value is given as 5 and the “ECHCG” value was found to be 3. Besides, the “SETFA (Setaria faberi) damage score” value was 4 and the “ZEAMX (Zea mays) damage score” value amounted to 1.

Regarding `CCc1cc(N2C(=O)C(C)=C(OC)C2O)ncc1-c1ccc(F)cc1F` (stereo not drawn) [AD106], the “ABUTH” value was 5, the “ALOMY” value was found to be 2, the “AMARE” value is listed as 5 and the “ECHCG” value was found to be 4. In addition, the “SETFA (Setaria faberi) damage score” value is recorded as 4 and the “ZEAMX (Zea mays) damage score” value turned out to be 0.

For `CCc1cc(N2C(=O)C(C)=C(OC)C2O)ncc1-c1ccccc1C` (stereo not drawn) [AD107], the “ABUTH” value stood at 5, the “ALOMY” value turned out to be 2, the “AMARE” value is recorded as 5 and the “ECHCG” value is listed as 2. The “SETFA (Setaria faberi) damage score” value came to 3 and the “ZEAMX (Zea mays) damage score” value is recorded as 1.

Regarding `CCc1cc(N2C(=O)C(C)=C(OC)C2O)ncc1-c1cccc(F)c1` (stereo not drawn) [AD108], the “ABUTH” value was 5, the “ALOMY” value is listed as 3, the “AMARE” value is given as 5 and the “ECHCG” value turned out to be 3. Further, the “SETFA (Setaria faberi) damage score” value turned out to be 5 and the “ZEAMX (Zea mays) damage score” value is 0.

For `COC1=C(C)C(=O)N(c2cc(C)c(-c3cccc(C#N)c3)cn2)C1O` (stereo not drawn) [AD109], the “ABUTH” value was determined as 5, the “ALOMY” value came to 3, the “AMARE” value stood at 5 and the “ECHCG” value is reported as 5. In addition, the “SETFA (Setaria faberi) damage score” value stood at 5 and the “ZEAMX (Zea mays) damage score” value was determined as 1.

For the compound `COC1=C(C)C(=O)N(c2cc(C)c(-c3ccccc3OC)cn2)C1O` (stereo not drawn) [AD110], the “ABUTH” value turned out to be 5, the “ALOMY” value stood at 2, the “AMARE” value is listed as 5 and the “ECHCG” value was 1. The “SETFA (Setaria faberi) damage score” value amounted to 2 and the “ZEAMX (Zea mays) damage score” value came out at 0.

Turning to `COC1=C(C)C(=O)N(c2cc(C)c(-c3ccc(C#N)cc3)cn2)C1O` (stereo not drawn) [AD111], the “ABUTH” value worked out at 5, the “ALOMY” value amounted to 2, the “AMARE” value is 5 and the “ECHCG” value came out at 1. Also, the “SETFA (Setaria faberi) damage score” value amounted to 4 and the “ZEAMX (Zea mays) damage score” value is on record as 1.

Consider `COC1=C(C)C(=O)N(c2cc(C)c(-c3ccc4c(c3)OCO4)cn2)C1O` (stereo not drawn) [AD112], for which the “ABUTH” value was 4, the “ALOMY” value came out at 2, the “AMARE” value is on record as 5 and the “ECHCG” value came out at 3. The “SETFA (Setaria faberi) damage score” value is given as 3 and the “ZEAMX (Zea mays) damage score” value was found to be 1.

As to `COC1=C(C)C(=O)N(c2cc(C)c(-c3ccoc3)cn2)C1O` (stereo not drawn) [AD113], the “ABUTH” value came to 3, the “ALOMY” value is reported as 2, the “AMARE” value was 5 and the “ECHCG” value is on record as 2. Also, the “SETFA (Setaria faberi) damage score” value was determined as 1 and the “ZEAMX (Zea mays) damage score” value is given as 1.

Take `COC1=C(C)C(=O)N(c2cc(C)c(-c3cc(F)c(F)c(F)c3)cn2)C1O` (stereo not drawn) [AD114]: the “ABUTH” value was 4, the “ALOMY” value worked out at 2, the “AMARE” value is on record as 5 and the “ECHCG” value is reported as 1. The “SETFA (Setaria faberi) damage score” value is recorded as 3 and the “ZEAMX (Zea mays) damage score” value turned out to be 0.

For the compound `COC1=C(C)C(=O)N(c2cc(C)c(-c3ccc(OC)cc3)cn2)C1O` (stereo not drawn) [AD115], the “ABUTH” value came to 5, the “ALOMY” value is 2, the “AMARE” value is reported as 5 and the “ECHCG” value is given as 1. Further, the “SETFA (Setaria faberi) damage score” value is recorded as 1 and the “ZEAMX (Zea mays) damage score” value is reported as 1.

In the case of `COC1=C(C)C(=O)N(c2cc(C)c(-c3ccc([N+](=O)[O-])cc3)cn2)C1O` (stereo not drawn) [AD116], the “ABUTH” value stood at 2, the “ALOMY” value amounted to 0, the “AMARE” value was 5 and the “ECHCG” value worked out at 0. Moreover, the “SETFA (Setaria faberi) damage score” value was 1 and the “ZEAMX (Zea mays) damage score” value amounted to 1.

For the compound `COC1=C(C)C(=O)N(c2cc(C)c(-c3ccc(OC)c(OC)c3)cn2)C1O` (stereo not drawn) [AD117], the “ABUTH” value was 5, the “ALOMY” value was determined as 2, the “AMARE” value is listed as 5 and the “ECHCG” value is 1. Also, the “SETFA (Setaria faberi) damage score” value stood at 4 and the “ZEAMX (Zea mays) damage score” value is 0.

As to `COC1=C(C)C(=O)N(c2cc(C)c(-c3cccc([N+](=O)[O-])c3)cn2)C1O` (stereo not drawn) [AD118], the “ABUTH” value worked out at 5, the “ALOMY” value was determined as 2, the “AMARE” value stood at 5 and the “ECHCG” value is 2. The “SETFA (Setaria faberi) damage score” value amounted to 4 and the “ZEAMX (Zea mays) damage score” value is 0.

Take `COC1=C(C)C(=O)N(c2cc(C)c(-c3ccc(C)c([N+](=O)[O-])c3)cn2)C1O` (stereo not drawn) [AD119]: the “ABUTH” value was 2, the “ALOMY” value turned out to be 2, the “AMARE” value worked out at 5 and the “ECHCG” value was determined as 1. In addition, the “SETFA (Setaria faberi) damage score” value turned out to be 1 and the “ZEAMX (Zea mays) damage score” value was determined as 0.

As for `COC1=C(C)C(=O)N(c2cc(C)c(-c3ccccc3[N+](=O)[O-])cn2)C1O` (stereo not drawn) [AD120], the “ABUTH” value was 5, the “ALOMY” value worked out at 2, the “AMARE” value worked out at 5 and the “ECHCG” value was determined as 4. In addition, the “SETFA (Setaria faberi) damage score” value is reported as 4 and the “ZEAMX (Zea mays) damage score” value worked out at 0.

Consider `COC1=C(C)C(=O)N(c2cc(C)c(-c3ccccc3F)cn2)C1O` (stereo not drawn) [AD121], for which the “ABUTH” value was determined as 5, the “ALOMY” value was 3, the “AMARE” value was determined as 5 and the “ECHCG” value is 3. The “SETFA (Setaria faberi) damage score” value worked out at 5 and the “ZEAMX (Zea mays) damage score” value came out at 1.

In the case of `COC1=C(C)C(=O)N(c2cc(C)c(-c3ccc(F)cc3F)cn2)C1O` (stereo not drawn) [AD122], the “ABUTH” value turned out to be 5, the “ALOMY” value amounted to 3, the “AMARE” value worked out at 5 and the “ECHCG” value was 4. Moreover, the “SETFA (Setaria faberi) damage score” value turned out to be 4 and the “ZEAMX (Zea mays) damage score” value is listed as 0.

Turning to `COC1=C(C)C(=O)N(c2cc(C(F)(F)F)c(-c3ccoc3)cn2)C1O` (stereo not drawn) [AD124], the “ABUTH” value amounted to 2, the “ALOMY” value worked out at 2, the “AMARE” value is reported as 5 and the “ECHCG” value was determined as 2. Further, the “SETFA (Setaria faberi) damage score” value was 4 and the “ZEAMX (Zea mays) damage score” value was determined as 0.

On to `COC1=C(C)C(=O)N(c2cc(C(F)(F)F)c(-c3ccc(S(C)(=O)=O)cc3)cn2)C1O` (stereo not drawn) [AD125], for which the “ABUTH” value is listed as 4, the “ALOMY” value is recorded as 4, the “AMARE” value is reported as 5 and the “ECHCG” value was 4. In addition, the “SETFA (Setaria faberi) damage score” value was determined as 4 and the “ZEAMX (Zea mays) damage score” value came to 1.

Regarding `COC1=C(C)C(=O)N(c2cc(C(F)(F)F)c(-c3cc(F)c(F)c(F)c3)cn2)C1O` (stereo not drawn) [AD126], the “ABUTH” value was found to be 5, the “ALOMY” value was 3, the “AMARE” value is on record as 5 and the “ECHCG” value was found to be 3. Further, the “SETFA (Setaria faberi) damage score” value is recorded as 5 and the “ZEAMX (Zea mays) damage score” value is on record as 1.
